Here are results for seven compounds from publication PMC6017400, “Investigation into Improving the Aqueous Solubility of the Thieno[2,3-b]pyridine Anti-Proliferative Agents” (Molecules : A Journal of Synthetic Chemistry and Natural …, 2018).

pIC50: −log10 of the molar value. Converted amounts (≈) assume the structure as drawn. “And” between values parts separate entries of the source, which are not always exact repeats. Equal entries are not always repeated. Where two headings read alike, the source gives them in different places.

Series [1] can be described thus: Aqueous thermodynamic solubility by HPLC. It is filed as physicochemical. As to conditions: for solubility thermodynamic at 15 min / solubility at 15 min: thermodynamic from solid; for solubility thermodynamic at 15 min / Experimental S / solubility at 15 min: water; for solubility thermodynamic at 15 min: read-out: Experimental S. How it is done:
The aqueous thermodynamic solubility of derivatives 1–7 were measured using a standard HPLC (High Performance Liquid Chromatography) procedure. Solubility is defined as the amount of substance that passes into solution in order to establish the equilibrium at constant temperature and pressure and, thus, produce a saturated solution. The water solubility (log S) and log P were calculated for comparison.
Intrinsic aqueous drug solubility was determined by forming a supersaturated solution of the drug compound in water. The suspension was sonicated for 15 min and centrifuged at 13,000 rpm for 6 min. After 15 min the supernatant was decanted and the total drug content solubilised was analysed using reverse phase HPLC. The solution was analysed using an Agilent 1260 Infinity/DAD (100–900 nm) (Waldbronn, Germany) with a Zorbax eclipse XDB ([…], 4.6 mm × 150 mm) (Waldbronn, Germany) column. The mobile phase comprised of 80:20 acetonitrile: H2O containing 45 mM ammonium formate buffered to pH 3.5 with formic acid. Flow rate was 1 mL/min with 5 μL injection volume.

A short description of series [2]: Drug loading into Ch5 polymer (UV-VIS). It counts as physicochemical. As to conditions: 6 mg/mL, 10:1 feed ratio. Here is the method: The maximum compound solubilisation observed was 6 mg/mL at a 10:1 ratio, with 0.59 mg/mL drug encapsulation being achieved.
Polymer solutions of 1 mg/mL, 3 mg/mL, and 6 mg/mL were made up in deionised water and probe sonicated for 10 min to ensure aggregation of the self-assemblies was achieved. Compound 2 was added in 1:1, 5:1, and 10:1 initial drug: excipient weight ratios and the drug-polymer solutions were probe sonicated for a further 10 min to ensure maximum encapsulation was achieved. After cooling to room temperature, the solutions were filtered using 0.45 µm syringe filters (with prefilters) to ensure any excess un-encapsulated drugs were removed. Drug quantification was carried out using UV-VIS spectroscopy with the samples diluted in DMSO. Absorbance was measured at 304 nm. Calibration was run from 0.0039–0.0313 mg/mL with R^2 = 0.992 (see Supplementary Materials Figure S3 for the calibration plot).

A short description of series [3]: In vitro drug release from polymer into PBS. It counts as physicochemical. As to conditions: 37 °C. Here is the method:
The formulation (1 mL) was pipetted inside dialysis tubing (MW cut off = 12–14 kDa) and dialysed against PBS in sink (100 mL, 0.2 M) at 37 °C with stirring. At various time points 1 mL of the external PBS was extracted and replaced with 1 mL of fresh PBS. The presence of drug in the collected PBS was determined using UV-VIS spectroscopy as before.

The subject of series [4] is human pancreatic adenocarcinoma (BxPC-3) cells. The series is described as follows: MTT cytotoxicity assay. It counts as cell-based. How it is done:
Finally the viability was measured with the MTT assay in human pancreatic adenocarcinoma (BxPC-3) cells using 2 with and without the polymer encapsulation; the results are shown in Figure 6.
An MTT assay was carried out using human pancreatic adenocarcinoma (BxPC-3) cells. Cells were cultured in RPMI medium containing 10% FBS and 1% penicillin streptomycin (Penstrep). […] The experiments were performed in triplicate (n = 3) using eight wells per plate for each data point. […] Polymeric self-assemblies were formed by probe sonicating the polymers in sterile water (5 mg/mL). The polymer stock solutions were diluted to 0.005 mg/mL with media. A drug stock solution (20 mg/mL) was prepared by diluting compound 2 in DMSO. The formulations were prepared by addition of compound 2 into 0.005 mg/mL polymer solution.

The subject of series [5] is MDA-MB-231 (breast) human tumour cell line. Also noted: method as in PMID 26966420. As to conditions: read-out: IC50, thymidine uptake assay; cited from earlier work.
The next series concerns MDA-MB-231. Set-up: method as in PMID 22698703, doi:10.1039/c3md00320e, PMID 26966420. As to conditions: cited from earlier work.
In a further series the test system is HCT116. Set-up: method as in PMID 22698703, doi:10.1039/c3md00320e, PMID 26966420. As to conditions: cited from earlier work.
Series [6] concerns HCT116 (colon) human tumour cell line. The series is described as follows: Thymidine uptake cell proliferation assay. It is filed as cell-based. The note with it: 1 μM, untreated cells = 100% growth. Here is the method: (§1) Thymidine uptake was used for viability testing on the MDA-MB-231 (breast) and HCT116 (colon) human tumour cell lines. This measurement reflects the anti-proliferative/cytotoxic effects of the compounds. A concentration of 1 μM was used. […] To corroborate these findings, derivatives 3, 4, and 6 were tested against the National Cancer Institute’s human tumour cell line panel (NCI60). […] The leukaemia cell lines K-562 (45.5% growth) and SR (47.7% growth) were the most affected followed by the melanoma MDA-MB-435 (53.9% growth) cell line. This is an interesting observation since the thieno[2,3-b]pyridines are often active against leukaemia cells and the MDA-MB-435 cell line, in particular.
(§2) As described in detail previously cell proliferation was measured using a thymidine incorporation assay by seeding 3000 cells in each well using 96-well plates with varying concentrations of inhibitors for three days. Experiments were performed in triplicate with a minimum of two experimental repeats. Briefly, 0.04 µCi of ^3H-thymidine was added to each well and incubated for five hours, after which the cells were gathered onto glass fibre filters using an automated TomTec harvester. Filters were incubated with Betaplate Scint and thymidine incorporation determined with Trilux/Betaplate counter showing the percentage of cells incorporated with ^3H-thymidine into the DNA helix.

For series [7], the system named is MDA-MB-231 (breast) human tumour cell line. The series is described as follows: Thymidine uptake cell proliferation assay. As to conditions: 1 μM, untreated cells = 100% growth. It counts as cell-based. How it is done:
as §1, §2

Series [8] has as its system NCI60 human tumour cell line panel. The series is described as follows: NCI60 human tumour cell line panel growth inhibition (SRB). It counts as cell-based. Here is the method:
as §1
(§3) Furthermore, derivatives 3, 4, and 6 were sent to the National Cancer Institute’s Developmental Therapeutic Program (DTP) where they were screened against a panel of sixty human tumour cell lines (NCI60, for further information see [18, 29, 30] and a complete description in the Supplementary Materials section).
(§4) Figure S3. Compound 2 UV-vis calibration in DMSO at 304 nm.
(§5) NCI's 60-cell line panel growth inhibition assay
The NCI's human 60-cell lines were grown in RPMI 1640 medium containing 5% FBS and 2mM L-glutamine. Cells were inoculated into 96-well plates at plating densities 5000–40 000 cells per well, based on the doubling time of individual cell lines. Plates were then incubated at 37 °C, 5% CO2, 95% air and 100% relative humidity for 24 h prior to addition of tested compounds. After 24 h, two plates of each cell line were fixed in situ with trichloroacetic acid (TCA), to represent a measurement of the cell population for each cell line at the time of tested compound addition. Tested compounds were solubilized in DMSO at a concentration 400 times that of the desired final maximum test concentration and stored frozen prior to use. An aliquot of each frozen tested concentrate was thawed and diluted to twice the desired final maximum test concentration with complete medium containing 50 μg mL-1 gentamicin. 100 μL aliquot of the tested drug diluted solution was added to appropriate wells containing 100 μL of medium, resulting in the required final drug doses. Following tested compound addition, plates were incubated for additional 48 h. The assay was terminated by the addition of cold TCA for adherent cells. Cells were fixed in situ by addition of 50 μL of cold 50% (w/v) TCA (final concentration, 10% TCA) and incubated for 60 min at 4 °C. The supernatant was discarded, and plates were washed 5 times with water and air dried. Sulforhodamine B (SRB) solution (100 μL), 0.4%(w/v) in 1% acetic acid was added to each well, and plates were incubated for 10 min at rt. […] The bound stain was subsequently solubilized with 10 mM Trizma base, and the absorbance was measured on a plate reader at 515 nm. […]

Series [9] deals with leukaemia cell line K-562. The series is described as follows: NCI60 panel growth inhibition (SRB). It counts as cell-based, human. As to conditions: K-562, NCI60. Here is the method: as §1, §3, §4, §5
(§6) The NCI's human 60-cell lines were grown in RPMI 1640 medium containing 5% FBS and 2mM L-glutamine. Cells were inoculated into 96-well plates at plating densities 5000–40 000 cells per well, based on the doubling time of individual cell lines. Plates were then incubated at 37 °C, 5% CO2, 95% air and 100% relative humidity for 24 h prior to addition of tested compounds. After 24 h, two plates of each cell line were fixed in situ with trichloroacetic acid (TCA), to represent a measurement of the cell population for each cell line at the time of tested compound addition. Tested compounds were solubilized in DMSO at a concentration 400 times that of the desired final maximum test concentration and stored frozen prior to use. […] The bound stain was subsequently solubilized with 10 mM Trizma base, and the absorbance was measured on a plate reader at 515 nm. […]

The test system of the next series is leukaemia cell line SR. The series is described as follows: NCI60 panel growth inhibition (SRB). It is filed as cell-based, human. How it is done:
as §1, §3, §4, §5, §6

In series [10] the test system is melanoma MDA-MB-435 cell line. The series is described as follows: NCI60 panel growth inhibition (SRB). It is filed as cell-based, human. The note with it: MDA-MB-435, NCI60. How it is done: as §1, §3, §4, §5, §6
[11] abbreviates: HPLC, read-out: Experimental S, log S (converted).

Regarding `Nc1c(C(=O)Nc2ccccc2)sc2nc3c(cc12)C(=O)CCC3` [Compound 1, 3-amino-5-oxo-N-phenyl-5,6,7,8-tetrahydrothieno[2,3-b]quinoline-2-carboxamide], in series [1] (HPLC), the solubility thermodynamic at 15 min stood at 1.21 µg/mL (≈ 3.59 µM) and the “Experimental S” value turned out to be 1.2 µg/mL. The solubility at 15 min in series [1] (setting [11]) was 3.98 µM.
As for `Cc1c(Cl)cccc1NC(=O)c1sc2nc3c(cc2c1N)C(=O)CCC3` [Compound 2], the solubility thermodynamic at 15 min in [1] (HPLC) came to 3.53 µg/mL (≈ 9.15 µM). Also, in [1] (setting [11]), the solubility at 15 min is 10 µM. Further, the “drug encapsulation (maximum) in Ch5 polymer” value in [2] worked out at 0.59 mg/mL. Further, in [3], the “time to plateau of release from the polymer ensemble into the aqueous phase” value is ~ 40 min. Besides, the 50% inhibitory concentration (IC50) (commonly the concentration needed to halve the response being measured) in series [4] (BXPC-3, 24 h exposure, read-out: IC50, BxPC-3 viability (MTT)) was 2.5 µg/mL and 6.48 µM. Further, in series [4] (BxPC-3, 5 μg/mL (12.95 μM), read-out: cell viability (activity remaining)), the viability (as a rule, the share of living cells, or the viability signal relative to a control) at 12.95 µM was about 30%. The pIC50 – broadly, −log10 of the IC50, conventionally taken in molar units – in series [5] is 6.79. Besides, the GI50 (usually the concentration that inhibits growth by half) with MDA-MB-231 was 0.141 µM; with HCT116, 0.067 µM.
On to `Nc1c(C(=O)Nc2ccccc2)n(CCCN2CCOCC2)c2nc3c(cc12)CCCC3` [Compound 3], for which the “solubility increase as compared to 1” value in series [1] is recorded as “three orders of a magnitude”. This compound also had a water solubility in series [1] of 1300 µg/mL (≈ 3000 µM). Further, the “Experimental S” value in series [1] (HPLC) is 1339.8 µg/mL and 1336.7 µg/mL. Besides, the solubility at 15 min is 3160 µM in series [1] (setting [11]) and about 1300 µg/mL in series [1] (read-out: water solubility). The “average relative growth, thymidine assay” value in [6] came to 90.3%; in series [7] it was 99.5%. Moreover, the “activity against NCI60 panel” value in series [8] was “very modest or no activity”.
For `Nc1c(C(=O)Nc2ccccc2)n(CCCc2ccccc2)c2nc3c(cc12)CCCC3` [Compound 4], the solubility thermodynamic at 15 min in series [1] (HPLC) was 0.2 µg/mL (≈ 0.471 µM). Further, the solubility at 15 min in [1] (setting [11]) is 0.501 µM. Further, the results for the “average relative growth, thymidine assay” value in series [6] and in series [7] were 103.6% and 105.4%, respectively. Besides, the “activity against NCI60 panel” value in series [8] is on record as “very modest or no activity”.
In the case of `Cn1c(C(=O)Nc2cccc3ccccc23)c(N)c2cc3c(nc21)CCCC3` [Compound 5], the solubility thermodynamic at 15 min in series [1] (HPLC) stood at 0.18 µg/mL (≈ 0.486 µM). Moreover, the solubility at 15 min in series [1] (setting [11]) was 0.501 µM. The “average relative growth, thymidine assay” value turned out to be 102.1% in series [6] and 97.2% in series [7].
On to `Cc1cccc(NC(=O)c2c(N)c3cc4c(nc3n2C)CCCC4)c1C` [Compound 6], for which, in series [1] (HPLC), the solubility thermodynamic at 15 min is 0.76 µg/mL (≈ 2.18 µM). Besides, the solubility at 15 min in [1] (setting [11]) was 2 µM. The results for the “average relative growth, thymidine assay” value in series [6] and in series [7] were 104.2% and 106.0%, respectively. For the same compound, the “activity against NCI60 panel” value in series [8] is on record as “very modest or no activity”. In addition, in [8] (untreated cells = 100% growth), the “overall relative growth for the 60 cell lines” value was 77%. Moreover, the growth is recorded as 45.5% in series [9], 47.7% with leukaemia cell line SR and 53.9% in series [10].
In the case of `Cn1c(C(=O)Nc2ccccc2)c(N)c2cc3c(nc21)CCCCCC3` [Compound 7], the solubility thermodynamic at 15 min in [1] (HPLC) turned out to be 0.61 µg/mL (≈ 1.75 µM). The solubility at 15 min in series [1] (setting [11]) was 1.58 µM. For the same compound, the “average relative growth, thymidine assay” value in series [6] worked out at 99.0%; in series [7] it was 100.7%.
